Assay: xn = mol fraction of the nth substance listed
Conditions: 100 kPa, Liquid; for viscosity: Falling or rolling sphere viscometry; for speed of sound: Frequency=3 MHz, Single path-length method; for mass density: Vibrating tube method

C[S+](C)[O-] [dimethyl sulfoxide] + CC#N
Conditions | mass density, 298.15 K [kg/m3] | mass density, 303.15 K [kg/m3] | mass density, 308.15 K [kg/m3] | speed of sound, 298.15 K [m/s] | speed of sound, 303.15 K [m/s] | speed of sound, 308.15 K [m/s] | viscosity, 298.15 K [mPa·s] | viscosity, 303.15 K [mPa·s] | viscosity, 308.15 K [mPa·s]
x1 = 0.0995 | 820.43 | 815.06 | 809.67 | 1299.5 | 1280.1 | 1260.6 | 0.42 | 0.4 | 0.39
x1 = 0.2061 | 862.88 | 857.6 | 852.28 | 1322.6 | 1303.8 | 1285 | 0.52 | 0.49 | 0.46
x1 = 0.2936 | 896.29 | 891.05 | 885.81 | 1346.2 | 1327.8 | 1309.9 | 0.57 | 0.53 | 0.52
x1 = 0.4055 | 935.15 | 929.99 | 924.82 | 1372 | 1354.1 | 1336.2 | 0.72 | 0.67 | 0.64
x1 = 0.5051 | 966.82 | 961.71 | 956.58 | 1395.1 | 1377.5 | 1360 | 0.86 | 0.81 | 0.75
x1 = 0.6001 | 994.77 | 989.72 | 984.67 | 1415.8 | 1398.5 | 1381.3 | 1.06 | 0.97 | 0.91
x1 = 0.7006 | 1022.53 | 1017.55 | 1012.57 | 1439.2 | 1422.2 | 1405.2 | 1.27 | 1.17 | 1.08
x1 = 0.8072 | 1050.32 | 1045.34 | 1040.36 | 1460.8 | 1443.9 | 1427 | 1.54 | 1.42 | 1.29
x1 = 0.8947 | 1071.95 | 1066.98 | 1062.01 | 1480.9 | 1464 | 1447.2 | 1.76 | 1.6 | 1.47
x1 = 1 | 1095.62 | 1090.62 | 1085.61 | 1490.5 | 1473.6 | 1456.8 | 2.03 | 1.84 | 1.67

Reference: the NIST ThermoML archive (doi:10.1021/acs.jced.7b00429)
